# US10450327B2, “Epidithiodioxopiperazine compound or its derivatives, and the use thereof” (priority 2011, dated 2019)
# Key:
# SK-MEL-28 (SK28) cells = test: Melanoma proliferation and migration assay, SK28; format: cell-based, human; settings: 100 nM, 1 hour pretreatment
# Description: The extent of cell proliferation was measured using a WST-1 cell proliferation assay kit (Roche Diagnostics, USA) according to the protocol of the manufacturer. The number of cells was expressed as an absorbance value at 450 nm averaged from 3 wells after subtracting the turbidity at 600 nm. The chemotactic transmigration assay was performed in a 24-well Transwell culture chamber (Costar; polycarbonate membrane insert with 8-μm pore size). The bottom of the insert was coated with gelatin B (1 mg/ml) and air-dried for 1 hour. Retroviruses or transfection complexes were treated to melanoma cells (6×10^3). After 24 hours, the infected or transfected melanoma cells were serum-starved for 18 hours. A 20% FBS solution was added to bottom chambers including a basal medium containing 0.5% BSA. The upper chamber wells were each filled with a basal medium including 0.5% BSA. The Transwell chamber was incubated for 12 hours in a 37° C./5% CO2 incubator. After the incubation, the non-migrating cells at the top of the filter were removed. The cells that migrated onto the bottom of filter were fixed and stained with 0.6% hematoxylin and 0.5% eosin. The stained cells were photographed and counted. The number of migrating cells was averaged from 3 wells. […]
# [1] = test system: balloon injured carotid arteries; test: Vascular permeability test (Evans blue inflow); settings: rat, in vivo
# Description: Mice were injected intravenously with 100 μl of 5% Evans blue for 30 minutes and then perfused with PBS for 5 minutes. The common carotid arteries were removed from both uninjured collateral and injured ipsilateral ones. The result was dissected, opened longitudinally, and examined on a phase contrast microscope with a magnification of 20×. For quantification, the Evans blue inflowed into the blood vessel was extracted by being placed in formamide at 55° C. overnight and centrifuged for 10 minutes at 12,000 rpm. The supernatants were collected and the absorbance was measured at 620 nm. The background value of the Evans blue dye was measured at 740 nm and substracted from the values in carotid arteries. For VEGFR2 inhibition, SU5416 (20 mg/kg) was injected intraperitoneally for 3 times (Days −1, 1, and 3) before and after the balloon injury. Control injection was made of 200 μl PBS including a vehicle (5% DMSO).
# The permeability of the repaired endothelium was examined by Evans blue inflow.
structure (smiles),measurement,setting,value
CN1C(=O)[C@]23CC4=CC=C[C@H](O)[C@H]4N2C(=O)[C@@]1(CO)SS3 [gliotoxin],"proliferation and migration responding to serum stimulation, SK28",SK-MEL-28 (SK28) cells,reduced
same,Evans blue inflow compared to DMSO-treated injured carotid arteries,[1],approximately two-third reduction
